From patent US12171230B2, “Herbicidal compositions” (Bayer Aktiengesellschaft, priority 2018, dated 2024)

Assays:
Format in all cases: in vivo
Bromus sterilis = assay: Post-emergence herbicidal action against Bromus sterilis
Text: (§1) The following abbreviations are used in the description and the tables that follow: • g of a.i./ha=grams of active substance (active ingredient) (=100% active compound) per hectare; • The sum total of the effects of the individual applications is reported under E^A; • expected values according to Colby are each reported under E^C.
(§2) The rating period is reported in days after application (DAT).

Galium aparine = assay: Post-emergence herbicidal action against Galium aparine
Description: (§3) When the observed efficacies exceed the formal sum total of the values of the tests with individual applications, they also exceed the expected value according to Colby, which is calculated using the formula below and is likewise regarded as an indication of synergism (cf. S. R. Colby; in Weeds 15 (1967) p. 20 to 22): E^C=A+B−([…])
(§4) Here: • A=efficacy of the active compound (A) in % at an application rate of a g a.i./ha; • B=efficacy of the active compound (B) in % at an application rate of b g a.i./ha; • E^C=expected value of the effect of the combination (A)+(B) in % at the combined application rate a+b g a.i./ha.
(§5) Seeds or rhizome pieces of mono- and dicotyledonous weeds are placed in sandy loam in pots, covered with soil and grown in a greenhouse under good growth conditions (temperature, air humidity, water supply). Three weeks after sowing, the test plants were treated at the three-leaf stage with the compositions according to the invention. The compositions according to the invention formulated as spray powders or as emulsion concentrates were sprayed onto the green plant parts in various dosages with an application rate of 300 to 800 l/ha of water (equivalent). After the test plants have been left to stand in the greenhouse under optimal growth conditions for about 3 to 4 weeks, the action of the preparations is scored visually in comparison to untreated controls. The compositions according to the invention also have good post-emergence herbicidal activity against a broad spectrum of economically important gramineous and broadleaf weeds.

Lolium rigidum = assay: Post-emergence herbicidal action against Lolium rigidum
Text: as §1, §2

[1] = test system: Lolium rigidum (resistant biotype); assay: Post-emergence herbicidal action against Lolium rigidum (resistant biotype)
Text: as §1, §2

Alopecurus myosuroides = assay: Post-emergence herbicidal action against Alopecurus myosuroides
Text: as §1, §2

Matricaria inodora = assay: Post-emergence herbicidal action against Matricaria inodora
Phalaris minor = assay: Post-emergence herbicidal action against Phalaris minor
Text: as §1, §2

Veronica hederifolia = assay: Post-emergence herbicidal action against Veronica hederifolia
Text: as §1, §2

Poa annua = assay: Post-emergence herbicidal action against Poa annua
Description: as §3, §4, §5

Lamium purpureum = assay: Post-emergence herbicidal action against Lamium purpureum; settings: 100 g of a.i./ha
Description: as §3, §4, §5

Viola tricolor = assay: Post-emergence herbicidal action against Viola tricolor
Text: as §1, §2

Centaurea cyano = assay: Post-emergence herbicidal action against Centaurea cyano
Description: Seeds or rhizome pieces of mono- and dicotyledonous weeds are placed in sandy loam in pots, covered with soil and grown in a greenhouse under good growth conditions (temperature, air humidity, water supply). Three weeks after sowing, the test plants were treated at the three-leaf stage with the compositions according to the invention. The compositions according to the invention formulated as spray powders or as emulsion concentrates were sprayed onto the green plant parts in various dosages with an application rate of 300 to 800 l/ha of water (equivalent).

`CC(C)N(C(=O)COc1nnc(C(F)(F)F)s1)c1ccc(F)cc1` [(B2.28) Flufenacet] was tested, and the “Herbicidal action 14 DAT against Bromus sterilis” value (Bromus sterilis; 33 g of a.i./ha) was 35%, the “Herbicidal action 14 DAT against Bromus sterilis” value (Bromus sterilis; 100 g of a.i./ha) was 75% and the “Herbicidal action 28 DAT against Bromus sterilis” value (Bromus sterilis; 100 g of a.i./ha) was 25%. The “Herbicidal action 28 DAT against Bromus sterilis” value (Bromus sterilis; 300 g of a.i./ha) was 65%, the “Herbicidal action 28 DAT against Galium aparine” value (Galium aparine; 33 g of a.i./ha) was 60% and the “Herbicidal action 28 DAT against Galium aparine” value (Galium aparine; 100 g of a.i./ha) was 65%. For the same compound, the “Herbicidal action 14 DAT against Lolium rigidum” value (Lolium rigidum; 33 g of a.i./ha) was 0%, the “Herbicidal action 14 DAT against Lolium rigidum” value (Lolium rigidum; 100 g of a.i./ha) was 35% and the “Herbicidal action 28 DAT against Lolium rigidum” value (Lolium rigidum; 100 g of a.i./ha) was 20%. The “Herbicidal action 14 DAT against Lolium rigidum” value (Lolium rigidum; 300 g of a.i./ha) was 40%, the “Herbicidal action 28 DAT against Lolium rigidum” value (Lolium rigidum; 300 g of a.i./ha) was 25% and the “Herbicidal action 14 DAT against Lolium rigidum (resistant biotype)” value (shortened to “Herbicidal action 14 DAT … (resistant biotype)”) ([1]; 100 g of a.i./ha) was 20%. The “Herbicidal action 28 DAT against Lolium rigidum (resistant biotype)” value (“Herbicidal action 28 DAT … (resistant biotype)” below) ([1]; 100 g of a.i./ha) was 10%, the “Herbicidal action 14 DAT … (resistant biotype)” value ([1]; 300 g of a.i./ha) was 10% and the “Herbicidal action 28 DAT … (resistant biotype)” value ([1]; 300 g of a.i./ha) was 20%. For the same compound, the “Herbicidal action 14 DAT against Alopecurus myosuroides” value (Alopecurus myosuroides; 100 g of a.i./ha) was 70%, the “Herbicidal action 28 DAT against Alopecurus myosuroides” value (Alopecurus myosuroides; 300 g of a.i./ha) was 75% and the “Herbicidal action 14 DAT against Matricaria inodora” value (Matricaria inodora; 33 g of a.i./ha) was 0%. The “Herbicidal action 28 DAT against Phalaris minor” value (Phalaris minor; 33 g of a.i./ha) was 0%, the “Herbicidal action 28 DAT against Phalaris minor” value (Phalaris minor; 100 g of a.i./ha) was 40% and the “Herbicidal action 28 DAT against Phalaris minor” value (Phalaris minor; 300 g of a.i./ha) was 85%. The “Herbicidal action 14 DAT against Veronica hederifolia” value (Veronica hederifolia; 33 g of a.i./ha) was 35%, the “Herbicidal action 14 DAT against Veronica hederifolia” value (Veronica hederifolia; 100 g of a.i./ha) was 40% and the “Herbicidal action 28 DAT against Poa annua L.” value (Poa annua; 33 g of a.i./ha) was 10%. The “Herbicidal action 28 DAT against Poa annua L.” value (Poa annua; 100 g of a.i./ha) was 70%, the “Herbicidal action 28 DAT against Poa annua L.” value (Poa annua; 300 g of a.i./ha) was 65% and the “Herbicidal action 14 DAT against Lamium purpureum L.” value (Lamium purpureum) was 40%. The “Herbicidal action 28 DAT against Lamium purpureum L.” value (Lamium purpureum) was 20%, the “Herbicidal action 14 DAT against Viola tricolor” value (Viola tricolor; 33 g of a.i./ha) was 20% and the “Herbicidal action 28 DAT against Viola tricolor” value (Viola tricolor; 33 g of a.i./ha) was 20%. For the same compound, the “Herbicidal action 14 DAT against Viola tricolor” value (Viola tricolor; 100 g of a.i./ha) was 50%, the “Herbicidal action 28 DAT against Viola tricolor” value (Viola tricolor; 100 g of a.i./ha) was 20% and the “Herbicidal action 28 DAT against Viola tricolor” value (Viola tricolor; 300 g of a.i./ha) was 35%. For the same compound, the “Herbicidal action 28 DAT against Centaurea cyanus” value (Centaurea cyano; 100 g of a.i./ha) was 20% and the “Herbicidal action 14 DAT against Centaurea cyanus” value (Centaurea cyano; 300 g of a.i./ha) was 30%.

In the case of `COc1cc(OC)nc(NC(=O)NS(=O)(=O)c2cc(NC=O)ccc2C(=O)N(C)C)n1` [(B2.31) Foramsulfuron], the “Herbicidal action 14 DAT against Bromus sterilis” value (Bromus sterilis; 1 g of a.i./ha) is reported as 65%, the “Herbicidal action 14 DAT against Bromus sterilis” value (Bromus sterilis; 3 g of a.i./ha) is reported as 85% and the “Herbicidal action 28 DAT against Bromus sterilis” value (Bromus sterilis; 3 g of a.i./ha) is reported as 25%. The “Herbicidal action 14 DAT against Bromus sterilis” value (Bromus sterilis; 9 g of a.i./ha) was 85%, the “Herbicidal action 28 DAT against Bromus sterilis” value (Bromus sterilis; 9 g of a.i./ha) was 60% and the “Herbicidal action 28 DAT against Galium aparine” value (Galium aparine; 1 g of a.i./ha) was 0%. The “Herbicidal action 28 DAT against Galium aparine” value (Galium aparine; 9 g of a.i./ha) was 65%, the “Herbicidal action 28 DAT against Lolium rigidum” value (Lolium rigidum; 3 g of a.i./ha) was 35% and the “Herbicidal action 28 DAT against Lolium rigidum” value (Lolium rigidum; 9 g of a.i./ha) was 65%. For the same compound, the “Herbicidal action 14 DAT … (resistant biotype)” value ([1]; 3 g of a.i./ha) was 15%, the “Herbicidal action 28 DAT … (resistant biotype)” value ([1]; 3 g of a.i./ha) was 10% and the “Herbicidal action 14 DAT … (resistant biotype)” value ([1]; 9 g of a.i./ha) was 15%. The “Herbicidal action 28 DAT … (resistant biotype)” value ([1]; 9 g of a.i./ha) was 20%, the “Herbicidal action 14 DAT against Alopecurus myosuroides” value (Alopecurus myosuroides; 1 g of a.i./ha) was 80% and the “Herbicidal action 28 DAT against Alopecurus myosuroides” value (Alopecurus myosuroides; 1 g of a.i./ha) was 40%. For the same compound, the “Herbicidal action 28 DAT against Alopecurus myosuroides” value (Alopecurus myosuroides; 3 g of a.i./ha) was 80%, the “Herbicidal action 28 DAT against Alopecurus myosuroides” value (Alopecurus myosuroides; 9 g of a.i./ha) was 85% and the “Herbicidal action 14 DAT against Matricaria inodora” value (Matricaria inodora; 1 g of a.i./ha) was 70%. The “Herbicidal action 28 DAT against Matricaria inodora” value (Matricaria inodora; 1 g of a.i./ha) was 30%, the “Herbicidal action 14 DAT against Phalaris minor” value (Phalaris minor; 3 g of a.i./ha) was 85% and the “Herbicidal action 28 DAT against Phalaris minor” value (Phalaris minor; 3 g of a.i./ha) was 40%. The “Herbicidal action 14 DAT against Phalaris minor” value (Phalaris minor; 9 g of a.i./ha) was 80%, the “Herbicidal action 28 DAT against Phalaris minor” value (Phalaris minor; 9 g of a.i./ha) was 20% and the “Herbicidal action 14 DAT against Veronica hederifolia” value (Veronica hederifolia; 1 g of a.i./ha) was 80%. For the same compound, the “Herbicidal action 28 DAT against Poa annua L.” value (Poa annua; 1 g of a.i./ha) was 40%, the “Herbicidal action 28 DAT against Viola tricolor” value (Viola tricolor; 1 g of a.i./ha) was 65% and the “Herbicidal action 28 DAT against Viola tricolor” value (Viola tricolor; 3 g of a.i./ha) was 80%.
